Assay results taken from PubChem BioAssay AID248 (DTP/NCI, 2004).
Several values for one entry are separate records, joined by “and”; a condition that tells them apart may be missing. Equal values may be shown once. Inconclusive results and toxic doses are left out. Cut-off read from the data, not from the text of the source: active = T/C of 150% or more; inactive = T/C below 125%.

Tested on: L1210 leukemia ip in BDF1 mice, survival T/C
Assay: NCI In Vivo Anticancer Drug Screen. Data for tumor model L1210 Leukemia (intraperitoneal) in B6D2F1 (BDF1) mice
Settings: endpoint: mean survival time, higher = longer survival
Summary of the method: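 Antitumor effect is assessed in tumor-bearing animals. Survival in the compound arm is compared with a vehicle-dosed control arm and expressed as their quotient.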

[1] = dose: 100.0 mg/kg/injection, schedule: Q01DX009 (ip), vehicle: Klucel (hydroxypropylcellulose) (HPC)
[2] = dose: 200.0 mg/kg/injection, schedule: Q01DX009 (ip), vehicle: Klucel (hydroxypropylcellulose) (HPC)
[3] = dose: 400.0 mg/kg/injection, schedule: Q01DX009 (ip), vehicle: Klucel (hydroxypropylcellulose) (HPC)

Measured: T/C

COc1ccc(Nc2ccnc3cc(Cl)ccc23)cc1CN(CCCl)CCCl
inactive: dose: 0.78 mg/kg/injection, schedule: Q01DX009 (ip), vehicle: saline 115 % of control | dose: 1.1 mg/kg/injection, schedule: Q01DX Z (ip), vehicle: methylcellulose (MC) 110 % of control | dose: 1.25 mg/kg/injection, schedule: Q01DX009 (ip), vehicle: Klucel (hydroxypropylcellulose) (HPC) 110 % of control | dose: 1.56 mg/kg/injection, schedule: Q01DX009 (ip), vehicle: saline 109 % of control | dose: 1.56 mg/kg/injection, schedule: Q04DX003 (ip), vehicle: saline 108 % of control | dose: 1.6 mg/kg/injection, schedule: Q01DX Z (ip), vehicle: methylcellulose (MC) 106 % of control and 118 % of control | dose: 2.4 mg/kg/injection, schedule: Q01DX Z (ip), vehicle: methylcellulose (MC) 117 % of control and 124 % of control | dose: 2.5 mg/kg/injection, schedule: Q01DX001 (ip), vehicle: Klucel (hydroxypropylcellulose) (HPC) 108 % of control | dose: 2.5 mg/kg/injection, schedule: Q01DX009 (ip), vehicle: Klucel (hydroxypropylcellulose) (HPC) 112 % of control | dose: 2.5 mg/kg/injection, schedule: Q04DX003 (ip), vehicle: Klucel (hydroxypropylcellulose) (HPC) 105 % of control | dose: 3.13 mg/kg/injection, schedule: Q01DX009 (ip), vehicle: saline 86 % of control | dose: 3.13 mg/kg/injection, schedule: Q04DX003 (ip), vehicle: saline 106 % of control | dose: 3.6 mg/kg/injection, schedule: Q01DX Z (ip), vehicle: methylcellulose (MC) 110 % of control and 112 % of control | dose: 5.0 mg/kg/injection, schedule: Q01DX001 (ip), vehicle: Klucel (hydroxypropylcellulose) (HPC) 107 % of control | dose: 5.0 mg/kg/injection, schedule: Q04DX003 (ip), vehicle: Klucel (hydroxypropylcellulose) (HPC) 106 % of control | dose: 10.0 mg/kg/injection, schedule: Q01DX001 (ip), vehicle: Klucel (hydroxypropylcellulose) (HPC) 103 % of control | dose: 10.0 mg/kg/injection, schedule: Q04DX003 (ip), vehicle: Klucel (hydroxypropylcellulose) (HPC) 105 % of control | dose: 50.0 mg/kg/injection, schedule: Q01DX001 (ip), vehicle: carboxymethylcellulose (CMC) 106 % of control

CCCCCCCCCCCCOP(N)(=O)OCCCCCCCCCCCC
inactive: dose: 50.0 mg/kg/injection, schedule: Q01DX009 (ip), vehicle: saline 90 % of control | dose: 100.0 mg/kg/injection, schedule: Q01DX009 (ip), vehicle: saline 88 % of control | dose: 100.0 mg/kg/injection, schedule: Q04DX003 (ip), vehicle: saline 94 % of control | dose: 200.0 mg/kg/injection, schedule: Q01DX009 (ip), vehicle: saline 88 % of control | dose: 200.0 mg/kg/injection, schedule: Q04DX003 (ip), vehicle: saline 90 % of control

O=C1CCCSc2ccccc21
inactive: [1] 106 % of control | dose: 100.0 mg/kg/injection, schedule: Q04DX003 (ip), vehicle: Klucel (hydroxypropylcellulose) (HPC) 108 % of control | [2] 104 % of control | dose: 200.0 mg/kg/injection, schedule: Q04DX003 (ip), vehicle: Klucel (hydroxypropylcellulose) (HPC) 106 % of control | [3] 106 % of control | dose: 400.0 mg/kg/injection, schedule: Q04DX003 (ip), vehicle: Klucel (hydroxypropylcellulose) (HPC) 101 % of control

CC(=O)OCC/C(=C/c1cc2ccccc2c2ccccc12)[N+](=O)[O-]
inactive: dose: 100.0 mg/kg/injection, schedule: Q01DX001 (ip), vehicle: saline 100 % of control | dose: 200.0 mg/kg/injection, schedule: Q01DX001 (ip), vehicle: saline 105 % of control | dose: 400.0 mg/kg/injection, schedule: Q01DX001 (ip), vehicle: saline 113 % of control

COc1cc(/C=N/O)cc(I)c1O
inactive: [1] 104 % of control | [2] 101 % of control | [3] 101 % of control

Cc1c2oc3c(C)c([N+](=O)[O-])cc(C(=O)NC4C(=O)NC(C(C)C)C(=O)N5CCCC5C(=O)N(C)CC(=O)N(C)C(C(C)C)C(=O)OC4C)c3nc-2c(C(=O)NC2C(=O)NC(C(C)C)C(=O)N3CCCC3C(=O)N(C)CC(=O)N(C)C(C(C)C)C(=O)OC2C)c(N)c1=O (centres undefined)
inactive: dose: 75.0 micrograms/kg/injection, schedule: Q01DX009 (ip), vehicle: saline + alcohol 110 % of control | dose: 100.0 micrograms/kg/injection, schedule: Q01DX009 (ip), vehicle: saline + alcohol 116 % of control | dose: 150.0 micrograms/kg/injection, schedule: Q01DX009 (ip), vehicle: saline + alcohol 111 % of control | dose: 300.0 micrograms/kg/injection, schedule: Q01DX009 (ip), vehicle: saline + alcohol 108 % of control | dose: 400.0 micrograms/kg/injection, schedule: Q01DX009 (ip), vehicle: saline + alcohol 96 % of control | dose: 400.0 micrograms/kg/injection, schedule: Q04DX003 (ip), vehicle: saline + alcohol 124 % of control | dose: 600.0 micrograms/kg/injection, schedule: Q04DX003 (ip), vehicle: saline + alcohol 119 % of control | dose: 800.0 micrograms/kg/injection, schedule: Q04DX003 (ip), vehicle: saline + alcohol 106 % of control | dose: 1200.0 micrograms/kg/injection, schedule: Q04DX003 (ip), vehicle: saline + alcohol 111 % of control
